Experimental data published in patent US20170107207A1, “AMINOPYRAZOLONE DERIVATIVE” (DAIICHI SANKYO COMPANY, LIMITED, priority 2014, published 2017).

Key:
TIP48/TIP49 complex = target: T1, TIP48/TIP49 complex (Homo sapiens, UniProt Q9Y230+Q9Y265); assay: ATPase assay of TIP48/TIP49 complex (ADP-Glo); type: biochemical; conditions: concentration at which the ATPase activity was inhibited by 50%
T1 construct: made in house; host or cells: E. coli
Procedure, shortened: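 Compound was tested over 10 four-fold concentrations, 200 μM down to 0.0007 μM at 2% DMSO, against E. coli-derived human rTIP48/rTIP49 for 1.5 h at room temperature, pH 7.5 with ATP. ATP hydrolysis was read as ADP-Glo luminescence, normalised to complex-only and no-complex wells, then fitted to dose-response curves.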

[1] = tested on: human lymphoma cell line RAMOS cells; assay: Cell growth inhibition test using RAMOS cell, MTT assay; type: cell-based; conditions: 50% growth inhibition concentration
Procedure, shortened: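 Cells in RPMI1640 with 10% FBS were exposed to compound (DMSO ≤1%) for 3 days at 37° C, 5% CO2. Viability was read by MTT (4 h, formazan in DMSO, OD 540/660 nm) against a day-0 plate; GI50 was interpolated from T/C % growth rates.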

T1 sequence (Q9Y230 whole entry): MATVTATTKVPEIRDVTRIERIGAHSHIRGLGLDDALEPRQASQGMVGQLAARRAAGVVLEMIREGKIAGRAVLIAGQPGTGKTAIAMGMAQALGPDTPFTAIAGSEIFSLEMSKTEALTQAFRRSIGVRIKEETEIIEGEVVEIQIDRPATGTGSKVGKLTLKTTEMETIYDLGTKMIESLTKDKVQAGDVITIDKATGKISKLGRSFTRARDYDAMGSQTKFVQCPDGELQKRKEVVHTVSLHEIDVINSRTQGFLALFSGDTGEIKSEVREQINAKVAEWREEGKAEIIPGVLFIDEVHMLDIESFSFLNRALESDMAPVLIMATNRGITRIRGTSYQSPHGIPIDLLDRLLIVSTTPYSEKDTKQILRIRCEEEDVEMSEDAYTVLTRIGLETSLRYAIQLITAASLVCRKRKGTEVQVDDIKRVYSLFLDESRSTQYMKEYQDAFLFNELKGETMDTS
T1 sequence (Q9Y265 whole entry): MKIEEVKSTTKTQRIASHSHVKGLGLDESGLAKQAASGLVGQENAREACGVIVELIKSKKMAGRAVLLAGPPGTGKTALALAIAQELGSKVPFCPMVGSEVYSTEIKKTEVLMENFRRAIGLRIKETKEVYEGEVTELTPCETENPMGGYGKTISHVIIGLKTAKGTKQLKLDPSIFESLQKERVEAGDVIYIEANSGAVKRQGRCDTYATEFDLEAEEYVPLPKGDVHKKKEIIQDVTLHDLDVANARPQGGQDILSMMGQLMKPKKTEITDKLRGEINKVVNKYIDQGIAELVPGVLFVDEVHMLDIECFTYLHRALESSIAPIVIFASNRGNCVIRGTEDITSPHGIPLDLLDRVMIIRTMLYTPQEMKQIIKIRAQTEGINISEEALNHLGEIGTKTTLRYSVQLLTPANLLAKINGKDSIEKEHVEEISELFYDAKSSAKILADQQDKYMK

Row | IC50 (TIP48/TIP49 complex) | GI50 [1] | Compound
1 | 61 nM | 140 nM | COCc1c(NC(=O)CC(C)(C)CNC(=O)c2cc(Cl)cc3c2OC(C)(C)C3)c(=O)n(-c2ccccc2)n1C [Example 121, 5-Chloro-N-(4-{[5-(methoxymethyl)-1-methyl-3-oxo-2-phenyl-2,3-dihydro-1H-pyrazol-4-yl]amino}-2,2-dimethyl-4-oxobutyl)-2,2-dimethyl-3H-benzofuran-7-carboxamide]
2 | 190 nM | 590 nM | COc1ccc(Cl)cc1NC(=O)CC(C)(C)CC(=O)Nc1c(C(C)C)n(C)n(-c2ccccc2)c1=O [Example 128, N-(5-Chloro-2-methoxyphenyl)-N′-(5-isopropyl-1-methyl-3-oxo-2-phenyl-2,3-dihydro-1H-pyrazol-4-yl)-3,3-dimethylpentanediamide]
3 | 220 nM | 800 nM | COc1ccc(Cl)cc1C(=O)NCC(C)(C)CC(=O)Nc1c(COC2CN(C)C2)n(C)n(-c2ccccc2)c1=O [Example 134]
4 | 100 nM | 120 nM | CCOc1ccc(Cl)cc1C(=O)NCC(C)(C)CC(=O)Nc1c(COc2cccnc2)n(C)n(-c2ccccc2)c1=O [Example 135, 5-Chloro-N-(2,2-dimethyl-4-{[1-methyl-3-oxo-2-phenyl-5-(3-pyridyloxymethyl)pyrazol-4-yl]amino}-4-oxobutyl)-2-ethoxybenzamide]
5 | 310 nM | 1700 nM | COc1ccc(Cl)cc1NC(=O)CC(C)(C)CC(=O)Nc1cn(C)n(-c2ccccc2)c1=O [Example 136, N-(5-Chloro-2-methoxyphenyl)-3,3-dimethyl-N′-(1-methyl-3-oxo-2-phenyl-2,3-dihydro-1H-pyrazol-4-yl)pentanediamide]
6 | 38 nM | 48 nM | CCOc1ccc(Cl)cc1C(=O)NCC(C)(C)CC(=O)Nc1c(C)n(CC)n(-c2ccccc2)c1=O [Example 137, 5-Chloro-2-ethoxy-N-{4-[(1-ethyl-5-methyl-3-oxo-2-phenyl-2,3-dihydro-1H-pyrazol-4-yl)amino]-2,2-dimethyl-4-oxobutyl}benzamide]
7 | 180 nM | 330 nM | CCCn1c(C)c(NC(=O)CC(C)(C)CC(=O)Nc2cc(Cl)c(F)cc2OC)c(=O)n1-c1ccccc1 [Example 138, N-(5-Chloro-4-fluoro-2-methoxyphenyl)-3,3-dimethyl-N′-(3-methyl-5-oxo-1-phenyl-2-propylpyrazol-4-yl)pentanediamide]
8 | 25 nM | 65 nM | Cc1c(NC(=O)CC(C)(C)CNC(=O)c2cc(Cl)cc3c2OC(C)(C)C3)c(=O)n(-c2ccccc2)n1CCO [Example 139, 5-Chloro-N-(4-{[1-(2-hydroxyethyl)-5-methyl-3-oxo-2-phenyl-2,3-dihydro-1H-pyrazol-4-yl]amino}-2,2-dimethyl-4-oxobutyl)-2,2-dimethyl-3H-benzofuran-7-carboxamide]
9 | 250 nM | 240 nM | CCOc1ncc(Cl)cc1C(=O)NCC(C)(C)CC(=O)Nc1c(C)n(CCN2CCC2)n(-c2ccccc2)c1=O [Example 140, N-[4-({1-[2-(Azetidin-1-yl)ethyl]-5-methyl-3-oxo-2-phenyl-2,3-dihydro-1H-pyrazol-4-yl}amino)-2,2-dimethyl-4-oxobutyl]-5-chloro-2-ethoxypyridine-3-carboxamide]
10 | 160 nM | 230 nM | CCOc1ncc(Cl)cc1C(=O)NCC(C)(C)CC(=O)Nc1c(C)n(CCN(C)C)n(-c2ccccc2)c1=O [Example 141, 5-Chloro-N-[4-({1-[2-(dimethylamino)ethyl]-5-methyl-3-oxo-2-phenyl-2,3-dihydro-1H-pyrazol-4-yl}amino)-2,2-dimethyl-4-oxobutyl]-2-ethoxypyridine-3-carboxamide]
11 | 61 nM | 180 nM | CCOc1ncc(Cl)cc1C(=O)NCC(C)(C)CC(=O)Nc1c(C)n(CCN2CCOCC2)n(-c2ccccc2)c1=O [Example 142, 5-Chloro-N-(2,2-dimethyl-4-{[5-methyl-1-(2-morpholinoethyl)-3-oxo-2-phenyl-2,3-dihydro-1H-pyrazol-4-yl]amino}-4-oxobutyl)-2-ethoxypyridine-3-carboxamide]
12 | 260 nM | 1200 nM | C=Cn1c(C)c(NC(=O)CC(C)(C)CC(=O)Nc2cc(Cl)c(F)cc2OC)c(=O)n1-c1ccccc1 [Example 143, N-(5-Chloro-4-fluoro-2-methoxyphenyl)-3,3-dimethyl-N′-(3-methyl-5-oxo-1-phenyl-2-vinylpyrazol-4-yl)pentanediamide]
13 | 1500 nM | 11000 nM | COc1cc(F)c(Cl)cc1NC(=O)CC(C)(C)CC(=O)Nc1c(C)[nH]n(-c2ccccc2)c1=O [Example 144, N-(5-Chloro-4-fluoro-2-methoxyphenyl)-3,3-dimethyl-N′-(5-methyl-3-oxo-2-phenyl-1H-pyrazol-4-yl)pentanediamide]
14 | 42 nM | 770 nM | COc1ccc(Cl)cc1C(=O)NCC(C)(C)CC(=O)Nc1c(C)n(C)n(-c2cccc(C)c2)c1=O [Example 145, 5-Chloro-N-(4-{[1,5-dimethyl-2-(m-toluyl)-3-oxopyrazol-4-yl]amino}-2,2-dimethyl-4-oxobutyl)-2-methoxybenzamide]
15 | 81 nM | 40 nM | Cc1c(NC(=O)CC(C)(C)CC(=O)Nc2cc(Cl)ccc2OC(C)C)c(=O)n(-c2cccc(C(F)(F)F)c2)n1C [Example 147, N-(5-Chloro-2-isopropoxy-phenyl)-N′-[1,5-dimethyl-3-oxo-2-[3-(trifluoromethyl)phenyl]pyrazol-4-yl]-3,3-dimethylpentanediamide]
16 | 100 nM | 190 nM | CCOc1ccc(Cl)cc1C(=O)NCC(C)(C)CC(=O)Nc1c(C)n(C)n(-c2ccccn2)c1=O [Example 149, 5-Chloro-N-(4-{[1,5-dimethyl-3-oxo-2-(2-pyridyl)pyrazol-4-yl]amino}-2,2-dimethyl-4-oxobutyl)-2-ethoxybenzamide]
17 | 110 nM | 350 nM | CCOc1ncc(Cl)cc1C(=O)NCC(C)(C)CC(=O)Nc1c(C)n(C)n(-c2ccccn2)c1=O [Example 150, 5-Chloro-N-(4-{[1,5-dimethyl-3-oxo-2-(2-pyridyl)-2,3-dihydro-1H-pyrazol-4-yl]amino}-2,2-dimethyl-4-oxobutyl)-2-ethoxypyridine-3-carboxamide]
18 | 40 nM | 130 nM | Cc1cc2cc(Cl)cc(C(=O)NCC(C)(C)CC(=O)Nc3c(C)n(C)n(-c4ccccn4)c3=O)c2o1 [Example 151, 5-Chloro-N-(4-{[1,5-dimethyl-3-oxo-2-(2-pyridyl)-2,3-dihydro-1H-pyrazol-4-yl]amino}-2,2-dimethyl-4-oxobutyl)-2-methylbenzofuran-7-carboxamide]
19 | 57 nM | 81 nM | CCOc1ccc(Cl)cc1C(=O)NCC(C)(C)CC(=O)Nc1c(C)n(C)n(-c2cccc(C)n2)c1=O [Example 152, 5-Chloro-N-(4-{[1,5-dimethyl-2-(6-methyl-2-pyridyl)-3-oxopyrazol-4-yl]amino}-2,2-dimethyl-4-oxobutyl)-2-ethoxybenzamide]
20 | 98 nM | 210 nM | CCOc1ncc(Cl)cc1C(=O)NCC(C)(C)CC(=O)Nc1c(C)n(C)n(-c2cccc(C)n2)c1=O [Example 153, 5-Chloro-N-(4-{[1,5-dimethyl-2-(6-methyl-2-pyridyl)-3-oxo-2,3-dihydro-1H-pyrazol-4-yl]amino}-2,2-dimethyl-4-oxobutyl)-2-ethoxypyridine-3-carboxamide]
